Legend:
[1] = tested on: H226B cells; test: MTT assay, viability of H226B cells; format: cell-based; conditions: Homo sapiens, 72 h, three days, read-out: IC50 against the viability
Experimental: (§1) Cells were seeded into 96-well plates at a density of 1-2 × 10^3 cells/well and incubated for 24 h. Cells were treated with vehicle or various concentrations of test compounds for two (PC9 and PC9/ER cells) or three (other cells) days. Cells were further incubated with MTT solution (final concentration of 500 μg/mL) for 4 h at 37 °C. The formazan products were dissolved in dimethyl sulfoxide (DMSO), and the absorbance was measured at 570 nm. The data are presented as a percentage of the control group.

[2] = tested on: AXL; test: Western blot, phosphorylation of AXL in H1944 and A549 cells; format: cell-based, human; conditions: 2.5 μM
Experimental: (§2) Before harvesting, the cells were stimulated with 10% FBS for 20 min. Total cell lysates were prepared with modified radioimmunoprecipitation assay lysis buffer (50 mM Tris-HCl [pH 7.4], 150 mM NaCl, 1 mM EDTA, 0.25% sodium deoxycholate, 1% Triton X-100, 100 mM NaF, 5 mM Na3VO4, 1 mM PMSF, 1 μg/mL aprotinin, 1 μg/mL leupeptin, and 1 μg/mL pepstatin). Equal amounts of protein (20 μg) were subjected to 8% SDS-PAGE and electrically transferred onto polyvinylidene difluoride membranes (Bio-Rad Laboratories, Hercules, CA, USA). Membranes were blocked with blocking buffer (3% BSA in Tris-buffered saline containing 0.1% Tween-20 [TBST]) for 1 h at room temperature. The membranes were incubated with primary antibodies diluted in 3% BSA in TBST (1:1,000) overnight at 4 °C, washed multiple times with TBST, and incubated with secondary antibodies diluted in 3% nonfat dry milk in TBST (1:5,000) for 1 h at room temperature. The membranes were washed multiple times with TBST and visualized using an enhanced chemiluminescence detection kit (Thermo Fisher Scientific). Densitometric analysis was performed using ImageJ software.

[3] = tested on: Src; test: KINOMEscan competition binding assay; parameters: species or system human
Experimental: (§3) Kd values were obtained by KINOMEscan from DiscoverX (San Diego, CA, USA). To briefly summarize, Kd was measured by a competition binding assay that quantitatively measures the ability of a compound to compete with an immobilized ligand. […] Dose response curves of 11 points are obtained for Kd values, which are measured in duplicate. See more details in the cited references [39]-[42] and see also at www.discoverx.com.

[4] = target: AXL; test: KINOMEscan competition binding assay; parameters: species or system human
Experimental: as §3

[5] = target: IGF-1R; test: KINOMEscan competition binding assay; parameters: species or system human
Experimental: as §3

[6] = tested on: Kras^G12D/+-driven lung tumors; test: Mutant Kras-driven lung tumorigenesis model; format: in vivo, Kras^G12D/+ transgenic mice
Experimental: All animal experiments were performed according to protocols approved by the Seoul National University Institutional Animal Care and Use Committee. Mice were fed standard mouse chow and water ad libitum and housed in temperature- and humidity-controlled facilities with a 12-h light/12-h dark cycle. For xenograft experiments, H1944 and A549 cells (1×10^6 cells/spot, diluted in equal amounts of PBS and Matrigel) were subcutaneously injected into the right flank of 6-week-old non-obese diabetic-severe combined immunodeficiency (NOD/SCID) mice. After the tumor volume reached 50-150 mm^3, the mice were randomly grouped and treated with vehicle [10% DMSO in 60% polyethylene glycol (PEG) 400 solution] or LL6 (80 mg/kg) 6 days per week for 2 weeks. Tumor growth was determined by measuring the short and long diameters of the tumor with a caliper, and body weight was measured once or twice per week to monitor toxicity. Additionally, to evaluate the effect of LL6 on mutant Kras-driven lung tumorigenesis, 2-month-old Kras^G12D/+ transgenic mice were randomized and treated with vehicle or LL6 (80 mg/kg) for 8 weeks. The mice were euthanized, and tumor formation was evaluated and compared with that of the vehicle-treated control group. Microscopic evaluations of the H&E-stained lung tissue were also performed to measure mean tumor number (N) and volume (V) in a blinded fashion. The number and size of tumors were calculated in five sections uniformly distributed throughout each lung. In both animal experiments, the tumor volume and burden of each sample were calculated using the following formulas: Tumor volume (mm^3) = (short diameter)^2 × (long diameter) × 0.5; Tumor burden (mm^3) = number of tumors × the average of tumor volume.
Sections derived from formalin-fixed and paraffin-embedded murine lung tissues were deparaffinized by incubation overnight at 65 °C, followed by rehydration in sequential xylene and ethanol rinses. After incubation with hydrogen peroxide, the slides were washed with PBS and then incubated with 0.3% Triton X-100. The sections were incubated with blocking solution (Dako Protein Block, Dako, Glostrup, Denmark) for 30 min at room temperature after washing with PBS. The sections were further incubated with primary antibodies (pAXL, pIGF-1R, and pSrc, diluted at 1:200) overnight at 4 °C, washed with PBS several times, incubated with the corresponding biotinylated secondary antibodies (diluted at 1:500), and then washed with PBS multiple times. After adding avidin-biotin complexes (Vector Laboratories, Burlingame, CA, USA), the sections were visualized using diaminobenzidine detection reagent (Enzo Life Sciences, Farmingdale, NY, USA) and mounted with a mounting solution (Vector Laboratories).

[7] = Water solubility; format: physicochemical
[8] = tested on: H1993 cells; test: MTT assay, viability of H1993 cells; format: cell-based; conditions: Homo sapiens, NCI-H1993, 72 h, three days, read-out: IC50 against the viability
Experimental: as §1

[9] = tested on: IGF-1R; test: Western blot, phosphorylation of IGF-1R in H1944 and A549 cells; format: cell-based, human; conditions: 2.5 μM
Experimental: as §2

[10] = tested on: LLC allografts; test: Spontaneous lung metastasis of LLC allografts; format: in vivo, C57BL/6 mice; conditions: 80 mg/kg orally, daily for 2 weeks
Experimental: We used the IVIS-Spectrum microCT and Living Image (ver. 4.2) software (PerkinElmer, Alameda, CA, USA) for monitoring metastatic tumor formation in the lungs. The instrument was operated according to the manufacturer's instruction. To facilitate the detection of photons emitted from metastatic lung tumors, we performed ex vivo imaging analysis. In brief, mice were injected at 60 mg/kg with the 15 mg/mL stock of luciferin prior to anesthesia. After 10-15 min, mice were euthanized, and lung tissues were excised and placed into a 60 mm dish. Tissues were immediately imaged after exposure for 1 min.

[11] = tested on: NSCLC cell lines; test: MTT assay, viability of various NSCLC cell lines; format: cell-based; conditions: Homo sapiens; NSCLC cells with various genetic backgrounds and histologies
Experimental: as §1

[12] = Glucose tolerance test; format: in vivo; conditions: LL6-administered mice vs vehicle-treated mice
Experimental: Glucose tolerance tests were performed as described in the previously published literature.

With Nc1ncnc2c1c(-c1ccc(Cl)cc1)nn2CCn1cc(COc2ccc(Nc3nccc(Nc4cnc5ccccc5c4)n3)cc2)nn1 [LL6] as the molecule, how does the IC50 [1] read?
The IC50 was 1.37 µM.

What about the “activation (phosphorylation) of AXL” value [2] of the same molecule?
Its value is “efficiently suppressed”.

What about the “Percent Control” value ([3]; LL6 at 10 μM) of the same molecule?
Its value is 26%.

What about the Kd ([3]; Src, 11-point dose response, duplicate) of the same molecule?
The Kd was 3.4 µM.

And the inhibition ([3]; Src, LL6 at 10 µM)?
The inhibition was over 65%.

And the Kd ([4]; AXL, 11-point dose response, duplicate)?
The Kd was 1.6 µM.

And the inhibition ([4]; AXL, LL6 at 10 µM)?
The inhibition was over 65%.

And the “Percent Control” value ([4]; LL6 at 10 μM)?
The value was 22%.

What about the Kd ([5]; IGF-1R, 11-point dose response, duplicate) of the same molecule?
The Kd was 5 µM.

And the inhibition ([5]; IGF-1R, LL6 at 10 µM)?
The inhibition was over 65%.

What about the “Percent Control” value ([5]; LL6 at 10 μM) of the same molecule?
The value was 16%.

And the “tumor volume and burden” value ([6]; 80 mg/kg for 8 weeks)?
The value was “Substantial decreases”.

And the “lung tumor nodules (multiplicity)” value ([6]; 80 mg/kg for 8 weeks, especially nodules > 1 mm^3)?
The value was “significantly decreased”.

And the body weight ([6]; 80 mg/kg for 8 weeks, vs vehicle)?
Its body weight is “no detectable difference”.

What about the “levels of pIGF-1R, pSrc, and pAXL in lung tumors” value ([6]; immunohistochemistry, 80 mg/kg, vs vehicle) of the same molecule?
Its value is “significantly decreased levels”.

What about the water solubility [7] of the same molecule?
Its water solubility is “poor”.

What about the IC50 [8] of the same molecule?
The IC50 was 7.79 µM.

What about the “activation (phosphorylation) of IGF-1R” value [9] of the same molecule?
Its value is “efficiently suppressed”.

What about the “metastatic tumor nodules in the lungs” value [10] of the same molecule?
The value was “significantly decreased”.

And the IC50 [11]?
Its IC50 is about 2.5 µM.

And the glucose clearance [12]?
The glucose clearance was “minimal difference”.

— publication PMC7778606, “Development of the phenylpyrazolo[3,4-d]pyrimidine-based, insulin-like growth factor receptor/Src/AXL-targeting small molecule kinase inhibitor” (Theranostics, 2021)
